Values quoted from earlier work in paper PMC2777304 (PLoS Pathogens, 2009).
Where a name gives a salt, the structure may show the parent alone.

Details: mouse, in vivo

## CCN(CC)CCCC(C)Nc1c2ccc(Cl)cc2nc2ccc(OC)cc12 (stereo not shown) [quinacrine, Quinacrine dihydrochloride]
  Highest nontoxic tolerable dose: 40 mg/kg/day
